{"source": "the NIST ThermoML archive (doi:10.1021/je0256028)", "key": {"[1]": {"assay": "xn = mol fraction of the nth substance listed", "settings": "298.15 K, Pendant drop shape"}, "[2]": {"settings": "298.15 K; for mass density: 101.33 kPa, Vibrating tube method; for surface tension liquid-gas: Pendant drop shape"}}, "note": "± gives the expanded uncertainty stated by the source.", "data": [{"smiles": "Cc1ccccc1C", "note": "[1,2-dimethylbenzene] + CC(C)O", "values": [{"measurement": "surface tension liquid-gas", "setting": "[1]; x2 = 0", "value": "29.6 ± 0.4", "unit": "mN/m"}, {"measurement": "surface tension liquid-gas", "setting": "[1]; x2 = 0.0992", "value": "28.21 ± 0.38", "unit": "mN/m"}, {"measurement": "surface tension liquid-gas", "setting": "[1]; x2 = 0.1988", "value": "27.11 ± 0.37", "unit": "mN/m"}, {"measurement": "surface tension liquid-gas", "setting": "[1]; x2 = 0.3024", "value": "26.07 ± 0.36", "unit": "mN/m"}, {"measurement": "surface tension liquid-gas", "setting": "[1]; x2 = 0.4004", "value": "25.3 ± 0.35", "unit": "mN/m"}, {"measurement": "surface tension liquid-gas", "setting": "[1]; x2 = 0.4979", "value": "24.54 ± 0.35", "unit": "mN/m"}, {"measurement": "surface tension liquid-gas", "setting": "[1]; x2 = 0.5971", "value": "23.98 ± 0.34", "unit": "mN/m"}, {"measurement": "surface tension liquid-gas", "setting": "[1]; x2 = 0.6988", "value": "23.15 ± 0.33", "unit": "mN/m"}, {"measurement": "surface tension liquid-gas", "setting": "[1]; x2 = 0.8", "value": "22.4 ± 0.32", "unit": "mN/m"}, {"measurement": "surface tension liquid-gas", "setting": "[1]; x2 = 0.8896", "value": "21.72 ± 0.32", "unit": "mN/m"}]}, {"smiles": "Cc1cccc(C)c1", "note": "[1,3-dimethylbenzene] + CC(C)(C)O", "values": [{"measurement": "surface tension liquid-gas", "setting": "[1]; x2 = 0", "value": "28.36 ± 0.39", "unit": "mN/m"}, {"measurement": "surface tension liquid-gas", "setting": "[1]; x2 = 0.1028", "value": "26.83 ± 0.37", "unit": "mN/m"}, {"measurement": "surface tension liquid-gas", "setting": "[1]; x2 = 0.201", "value": "25.76 ± 0.36", "unit": "mN/m"}, {"measurement": "surface tension liquid-gas", "setting": "[1]; x2 = 0.3006", "value": "24.84 ± 0.35", "unit": "mN/m"}, {"measurement": "surface tension liquid-gas", "setting": "[1]; x2 = 0.4009", "value": "23.98 ± 0.34", "unit": "mN/m"}, {"measurement": "surface tension liquid-gas", "setting": "[1]; x2 = 0.4999", "value": "23.21 ± 0.33", "unit": "mN/m"}, {"measurement": "surface tension liquid-gas", "setting": "[1]; x2 = 0.5994", "value": "22.52 ± 0.33", "unit": "mN/m"}, {"measurement": "surface tension liquid-gas", "setting": "[1]; x2 = 0.6984", "value": "21.84 ± 0.32", "unit": "mN/m"}, {"measurement": "surface tension liquid-gas", "setting": "[1]; x2 = 0.7981", "value": "21.22 ± 0.31", "unit": "mN/m"}, {"measurement": "surface tension liquid-gas", "setting": "[1]; x2 = 0.895", "value": "20.64 ± 0.31", "unit": "mN/m"}]}, {"smiles": "CC(C)(C)O", "note": "[2-methylpropan-2-ol] + Cc1ccccc1C", "values": [{"measurement": "surface tension liquid-gas", "setting": "[1]; x1 = 1", "value": "19.97 ± 0.3", "unit": "mN/m"}]}, {"smiles": "CC(C)(C)O", "note": "[2-methylpropan-2-ol] + Cc1ccc(C)cc1", "values": [{"measurement": "surface tension liquid-gas", "setting": "[1]; x1 = 1", "value": "19.97 ± 0.3", "unit": "mN/m"}]}, {"smiles": "Cc1ccc(C)cc1", "note": "[1,4-dimethylbenzene] + CC(C)O", "values": [{"measurement": "surface tension liquid-gas", "setting": "[1]; x2 = 0", "value": "27.89 ± 0.38", "unit": "mN/m"}, {"measurement": "surface tension liquid-gas", "setting": "[1]; x2 = 0.1029", "value": "26.82 ± 0.37", "unit": "mN/m"}, {"measurement": "surface tension liquid-gas", "setting": "[1]; x2 = 0.2014", "value": "26.03 ± 0.36", "unit": "mN/m"}, {"measurement": "surface tension liquid-gas", "setting": "[1]; x2 = 0.2993", "value": "25.32 ± 0.35", "unit": "mN/m"}, {"measurement": "surface tension liquid-gas", "setting": "[1]; x2 = 0.403", "value": "24.63 ± 0.35", "unit": "mN/m"}, {"measurement": "surface tension liquid-gas", "setting": "[1]; x2 = 0.4979", "value": "24.06 ± 0.34", "unit": "mN/m"}, {"measurement": "surface tension liquid-gas", "setting": "[1]; x2 = 0.5985", "value": "23.45 ± 0.33", "unit": "mN/m"}, {"measurement": "surface tension liquid-gas", "setting": "[1]; x2 = 0.6991", "value": "22.86 ± 0.33", "unit": "mN/m"}, {"measurement": "surface tension liquid-gas", "setting": "[1]; x2 = 0.7982", "value": "22.22 ± 0.32", "unit": "mN/m"}, {"measurement": "surface tension liquid-gas", "setting": "[1]; x2 = 0.9047", "value": "21.52 ± 0.32", "unit": "mN/m"}]}, {"smiles": "CC(C)O", "note": "[propan-2-ol]", "values": [{"measurement": "mass density", "setting": "[2]; Liquid", "value": "780.85 ± 0.16", "unit": "kg/m3"}, {"measurement": "surface tension liquid-gas", "setting": "[2]; Liquid", "value": "20.93 ± 0.31", "unit": "mN/m"}]}, {"smiles": "Cc1ccccc1C", "note": "[1,2-dimethylbenzene]", "values": [{"measurement": "mass density", "setting": "[2]; Liquid", "value": "875.92 ± 0.11", "unit": "kg/m3"}, {"measurement": "surface tension liquid-gas", "setting": "[2]; Liquid", "value": "29.6 ± 0.4", "unit": "mN/m"}]}, {"smiles": "Cc1ccc(C)cc1", "note": "[1,4-dimethylbenzene]", "values": [{"measurement": "mass density", "setting": "[2]; Liquid", "value": "856.85 ± 0.12", "unit": "kg/m3"}, {"measurement": "surface tension liquid-gas", "setting": "[2]; Liquid", "value": "27.89 ± 0.38", "unit": "mN/m"}]}, {"smiles": "Cc1cccc(C)c1", "note": "[1,3-dimethylbenzene] + CC(C)O", "values": [{"measurement": "surface tension liquid-gas", "setting": "[1]; x2 = 0", "value": "28.36 ± 0.39", "unit": "mN/m"}, {"measurement": "surface tension liquid-gas", "setting": "[1]; x2 = 0.1019", "value": "27.15 ± 0.38", "unit": "mN/m"}, {"measurement": "surface tension liquid-gas", "setting": "[1]; x2 = 0.1933", "value": "26.23 ± 0.37", "unit": "mN/m"}, {"measurement": "surface tension liquid-gas", "setting": "[1]; x2 = 0.2999", "value": "25.4 ± 0.36", "unit": "mN/m"}, {"measurement": "surface tension liquid-gas", "setting": "[1]; x2 = 0.4024", "value": "24.76 ± 0.35", "unit": "mN/m"}, {"measurement": "surface tension liquid-gas", "setting": "[1]; x2 = 0.4983", "value": "24.18 ± 0.34", "unit": "mN/m"}, {"measurement": "surface tension liquid-gas", "setting": "[1]; x2 = 0.5957", "value": "23.56 ± 0.34", "unit": "mN/m"}, {"measurement": "surface tension liquid-gas", "setting": "[1]; x2 = 0.7013", "value": "22.87 ± 0.33", "unit": "mN/m"}, {"measurement": "surface tension liquid-gas", "setting": "[1]; x2 = 0.7952", "value": "22.26 ± 0.32", "unit": "mN/m"}, {"measurement": "surface tension liquid-gas", "setting": "[1]; x2 = 0.8987", "value": "21.58 ± 0.32", "unit": "mN/m"}]}, {"smiles": "CC(C)O", "note": "[propan-2-ol] + Cc1ccc(C)cc1", "values": [{"measurement": "surface tension liquid-gas", "setting": "[1]; x1 = 1", "value": "20.93 ± 0.31", "unit": "mN/m"}]}, {"smiles": "CC(C)(C)O", "note": "[2-methylpropan-2-ol] + Cc1cccc(C)c1", "values": [{"measurement": "surface tension liquid-gas", "setting": "[1]; x1 = 1", "value": "19.97 ± 0.3", "unit": "mN/m"}]}, {"smiles": "CC(C)O", "note": "[propan-2-ol] + Cc1cccc(C)c1", "values": [{"measurement": "surface tension liquid-gas", "setting": "[1]; x1 = 1", "value": "20.93 ± 0.31", "unit": "mN/m"}]}, {"smiles": "Cc1ccccc1C", "note": "[1,2-dimethylbenzene] + CC(C)(C)O", "values": [{"measurement": "surface tension liquid-gas", "setting": "[1]; x2 = 0", "value": "29.6 ± 0.4", "unit": "mN/m"}, {"measurement": "surface tension liquid-gas", "setting": "[1]; x2 = 0.1083", "value": "27.8 ± 0.38", "unit": "mN/m"}, {"measurement": "surface tension liquid-gas", "setting": "[1]; x2 = 0.1992", "value": "26.43 ± 0.36", "unit": "mN/m"}, {"measurement": "surface tension liquid-gas", "setting": "[1]; x2 = 0.3042", "value": "25.27 ± 0.35", "unit": "mN/m"}, {"measurement": "surface tension liquid-gas", "setting": "[1]; x2 = 0.402", "value": "24.32 ± 0.34", "unit": "mN/m"}, {"measurement": "surface tension liquid-gas", "setting": "[1]; x2 = 0.5007", "value": "23.6 ± 0.34", "unit": "mN/m"}, {"measurement": "surface tension liquid-gas", "setting": "[1]; x2 = 0.5988", "value": "22.82 ± 0.33", "unit": "mN/m"}, {"measurement": "surface tension liquid-gas", "setting": "[1]; x2 = 0.6992", "value": "22.05 ± 0.32", "unit": "mN/m"}, {"measurement": "surface tension liquid-gas", "setting": "[1]; x2 = 0.8", "value": "21.38 ± 0.31", "unit": "mN/m"}, {"measurement": "surface tension liquid-gas", "setting": "[1]; x2 = 0.8991", "value": "20.71 ± 0.31", "unit": "mN/m"}]}, {"smiles": "Cc1ccc(C)cc1", "note": "[1,4-dimethylbenzene] + CC(C)(C)O", "values": [{"measurement": "surface tension liquid-gas", "setting": "[1]; x2 = 0", "value": "27.89 ± 0.38", "unit": "mN/m"}, {"measurement": "surface tension liquid-gas", "setting": "[1]; x2 = 0.1004", "value": "26.69 ± 0.37", "unit": "mN/m"}, {"measurement": "surface tension liquid-gas", "setting": "[1]; x2 = 0.2113", "value": "25.63 ± 0.36", "unit": "mN/m"}, {"measurement": "surface tension liquid-gas", "setting": "[1]; x2 = 0.3049", "value": "24.73 ± 0.35", "unit": "mN/m"}, {"measurement": "surface tension liquid-gas", "setting": "[1]; x2 = 0.4065", "value": "23.9 ± 0.34", "unit": "mN/m"}, {"measurement": "surface tension liquid-gas", "setting": "[1]; x2 = 0.498", "value": "23.25 ± 0.33", "unit": "mN/m"}, {"measurement": "surface tension liquid-gas", "setting": "[1]; x2 = 0.6012", "value": "22.5 ± 0.33", "unit": "mN/m"}, {"measurement": "surface tension liquid-gas", "setting": "[1]; x2 = 0.698", "value": "21.82 ± 0.32", "unit": "mN/m"}, {"measurement": "surface tension liquid-gas", "setting": "[1]; x2 = 0.8007", "value": "21.15 ± 0.31", "unit": "mN/m"}, {"measurement": "surface tension liquid-gas", "setting": "[1]; x2 = 0.9002", "value": "20.58 ± 0.31", "unit": "mN/m"}]}, {"smiles": "CC(C)O", "note": "[propan-2-ol] + Cc1ccccc1C", "values": [{"measurement": "surface tension liquid-gas", "setting": "[1]; x1 = 1", "value": "20.93 ± 0.31", "unit": "mN/m"}]}, {"smiles": "CC(C)(C)O", "note": "[2-methylpropan-2-ol]", "values": [{"measurement": "mass density", "setting": "[2]; Liquid", "value": "780.27 ± 0.16", "unit": "kg/m3"}, {"measurement": "surface tension liquid-gas", "setting": "[2]; Metastable liquid", "value": "19.97 ± 0.3", "unit": "mN/m"}]}, {"smiles": "Cc1cccc(C)c1", "note": "[1,3-dimethylbenzene]", "values": [{"measurement": "mass density", "setting": "[2]; Liquid", "value": "859.79 ± 0.16", "unit": "kg/m3"}, {"measurement": "surface tension liquid-gas", "setting": "[2]; Liquid", "value": "28.36 ± 0.39", "unit": "mN/m"}]}]}
